Values quoted from earlier work, collected in patent publication US9873698B2, “Spirocycles as inhibitors of 11-beta hydroxyl steroid dehydrogenase type 1” (Incyte Corporation, priority 2007, dated 2018).

Target: T1, 11βHSD1 (Homo sapiens, UniProt P28845)
T1 construct: host or cells: healthy volunteers, eye (in vivo)
Settings: healthy volunteers, after seven days of carbenoxolone treatment

T1 sequence (P28845 whole entry): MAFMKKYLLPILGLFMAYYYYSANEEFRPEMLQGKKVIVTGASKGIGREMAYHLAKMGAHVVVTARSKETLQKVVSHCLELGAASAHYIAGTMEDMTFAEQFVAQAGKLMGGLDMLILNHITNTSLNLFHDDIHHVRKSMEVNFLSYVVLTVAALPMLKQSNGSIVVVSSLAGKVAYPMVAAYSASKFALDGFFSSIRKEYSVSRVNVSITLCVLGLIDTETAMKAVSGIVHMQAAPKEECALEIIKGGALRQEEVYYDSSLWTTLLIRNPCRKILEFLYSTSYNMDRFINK

IOP reduced by: 18%
SMILES: CC1(C)[C@@H](OC(=O)CCC(=O)O)CC[C@]2(C)[C@H]3C(=O)C=C4[C@@H]5C[C@@](C)(C(=O)O)CC[C@]5(C)CC[C@@]4(C)[C@]3(C)CC[C@@H]12 [carbenoxolone]
